Experimental data from US20240116884A1, “Salts of Viloxazine” (Apotex Inc., priority 2022, published 2024).

Conditions: uncapped samples, 40° C./75% RH stability chamber, at least 3 weeks
Protocol: PXRD diffractograms were recorded on a Bruker D8 Discover powder X-ray diffractometer (Bruker AXS LLC, Karlsruhe, Germany). The generator was a Incoatec Microfocus Source (IμS) Cu tube (λ=1.54060 Å) with a voltage of 50 kV and current of 1.00 mA, using a divergence slit of 0.1 mm and collimator of 2.0 mm. For each sample, two frames were collected using a still scan with a PILATUS3 R 100K-A detector at the distance of 294.2 mm from the sample. Raw data were evaluated using the program DIFFRAC.EVA (Bruker AXS LLC, Karlsruhe, Germany).

Compound | change in the crystalline form by PXRD (form stability)
CCOc1ccccc1OCC1CNCCO1.CCOc1ccccc1OCC1CNCCO1.O=C(O)C(O)C(O)C(=O)O (racemic) [viloxazine hemi-DL-tartrate Form APO-I, viloxazine hemi-DL-tartrate] | no change in the crystalline form occurred
CCOc1ccccc1OCC1CNCCO1.O=S(=O)(O)c1ccc2ccccc2c1 (stereo not drawn) [viloxazine naphthalene-2-sulfonate] | no change in the crystalline form occurred
viloxazine fumarate [viloxazine fumarate Form APO-I] | no change in the crystalline form occurred
